Results published in patent publication US20110118298A1, “COMPOSITIONS, KITS, AND METHODS FOR IDENTIFICATION, ASSESSMENT, PREVENTION, AND THERAPY OF CANCER” (INFINITY PHARMACEUTICALS, INC., priority 2009, published 2011).
“Also recorded” adds a separate entry of the source. Structures can show the parent of a compound that is named as a salt.

Key:
H3122 cells = experiment: Growth inhibition, Cell Titer Glo, 72 h; assay type: cell-based; conditions: Homo sapiens, NCI-H3122, read-out: Wt H3122 (GI50, nM)
BON-1 xenograft = experiment: BON-1 xenograft; assay type: in vivo, NCr nude athymic mice; conditions: IPI-504 15 mg/kg i.p. twice per week, end of study
Description: Xenographs were generated by injecting 5×10^6 BON-1 cells into the flanks of […]. IPI-504 (also referred to herein as IPI-504) (15 mg/kg) or vehicle were administered i.p. twice per week (n=10 per arm), and tumor xenograft size was monitored twice weekly with calipers. Results are presented as means and SEM.

EML4-ALK = experiment: H3122 xenograft, PD time course by ALK specific ELISA; assay type: in vivo, nude mice; conditions: single injection of IPI-504 (100 mg/kg), tumors
Description: FIGS. 12A-12B depict a PD time course after IPI-504 treatment. After a single injection of 100 mg/kg IPI-504 tumors were collected at various times and ALK (FIG. 12A) and cleaved PARP (FIG. 12B) levels were monitored using ELISA and immunoblotting respectively.
Consistent with this, the responses to Hsp90 inhibitors in the clinic have so far mostly consisted of induction of stable disease. […] H3122 cells were injected into the flanks of nude mice and animals were treated with 75 mg/kg of IPI-504 twice weekly. […] To confirm degradation of EML4-ALK within these tumors, a separate arm was included in the study where tumors were harvested at different time points after a single injection of IPI-504 and the abundance of the fusion protein over time was monitored using an ALK specific ELISA (FIG. 12A). […] The depletion of EML4-ALK coincides with the appearance of PARP cleavage, an indication of caspase 3 activation and the induction of apoptosis (FIG. 12B).

[1] = system: MAPK pathway (p-bRAF, p-MEK), cleaved caspase 3 in Colo320HSR xenograft; experiment: Pharmacodynamic analysis after a single dose, wild-type xenograft; assay type: in vivo; conditions: single 100 mpk dose of IPI-493, Colo320HSR; 100 mg/kg
Description: To further investigate a potential correlation between the effect of IPI-493 on molecular components of the RAS-RAF-ERK pathway and efficacy, pharmacodynamic analysis was performed on mutant bRAF (Colo205, Colo201) and wild-type (Colo320HSR) xenograft models after a single 100 mpk dose. […] Moreover, when p-MEK activity was assessed for all the CRC xengrafts, there was a clear delineation of sensitivity between mutant and wild type models, further supporting the hypothesis that MAPK pathway activity can be a surrogate for IPI-493 efficacy. […] Altogether, these provide rationale for a clinical path in this disease.

[2] = system: HCT-116 (G13D mutant KRAS) xenograft; experiment: HCT-116 xenograft, 17-AG, Irinotecan and combination; assay type: in vivo, nude mice; conditions: single agents 100 mg/kg
Description: In the seventh set of studies, subcutaneous xenografts of HCT-116 (G13D mutant KRAS) colorectal tumor model were established by implantation of 10×10^6 cells into the right flank of nude mice. Once tumors reached approximately 100-150 mm^3, animals were randomized into treatment groups and administered either vehicle or a suspension of 50% 17-AG in HPMC-AS-HG dispersion in vehicle (1% hydroxyethylcellulose, 5% glycerol) (100 mg/kg, M-W-F, 3 weeks), Irinotecan (100 mg/kg, Q7D, 3 weeks) or the combination of a suspension of 50% 17-AG in HPMC-AS-HG dispersion in vehicle (1% hydroxyethylcellulose, 5% glycerol) (50 mg/kg, M-W-F) and Irinotecan (75 mg/kg, Q7D) for three weeks, and tumor volume measured twice per week (FIG. 27A; FIG. 27B is a zoomed-in section of FIG. 27A). At the end of the dosing period, animals were monitored for an additional 21 days to follow tumor growth delay.

SMILES | GI50 (H3122 cells) [nM] | reduction in tumor size compared with vehicle (BON-1 xenograft) [%] | time ALK fusion protein is depleted after a single injection (EML4-ALK) | p-bRAF, p-MEK, cleaved caspase 3 in wild type model [1] | average tumor growth inhibition while on drug ([2]; combination 17-AG 50 mg/kg M-W-F + Irinotecan 75 mg/kg Q7D) [%] | delay in tumor progression in re-growth phase ([2]; combination 50 + 75 mg/kg)
C=CCNc1c(O)cc2c(O)c1C[C@@H](C)C[C@H](OC)[C@H](O)[C@@H](C)/C=C(\C)[C@H](OC(N)=O)[C@@H](OC)/C=C\C=C(/C)C(=O)N2 [IPI-504, retaspimycin hydrochloride] | 22 | 58 | more than 48 h | – | – | –
CO[C@H]1/C=C\C=C(/C)C(=O)NC2=CC(=O)C(N)=C(C[C@@H](C)C[C@H](OC)[C@H](O)[C@@H](C)/C=C(\C)[C@@H]1OC(N)=O)C2=O [IPI-493, 17-AG] | – | – | – | little effect of IPI-493 administration; also recorded: Minimal changes | ~75 | no delay in tumor progression
